Results published in patent US10316039B2, “P2X3 and/or P2X2/3 compounds and methods” (Asana Biosciences, LLC, priority 2013, dated 2019).

How the values were obtained:
P2X2/3 = molecular target: T1, P2X2/3 (Homo sapiens, UniProt P56373+Q9UBL9); assay: P2X2/3 FLIPR intracellular calcium assay; format: cell-based; details: agonist at EC75, species (human or rat) not given
T1 sequence (Q9UBL9 1-471): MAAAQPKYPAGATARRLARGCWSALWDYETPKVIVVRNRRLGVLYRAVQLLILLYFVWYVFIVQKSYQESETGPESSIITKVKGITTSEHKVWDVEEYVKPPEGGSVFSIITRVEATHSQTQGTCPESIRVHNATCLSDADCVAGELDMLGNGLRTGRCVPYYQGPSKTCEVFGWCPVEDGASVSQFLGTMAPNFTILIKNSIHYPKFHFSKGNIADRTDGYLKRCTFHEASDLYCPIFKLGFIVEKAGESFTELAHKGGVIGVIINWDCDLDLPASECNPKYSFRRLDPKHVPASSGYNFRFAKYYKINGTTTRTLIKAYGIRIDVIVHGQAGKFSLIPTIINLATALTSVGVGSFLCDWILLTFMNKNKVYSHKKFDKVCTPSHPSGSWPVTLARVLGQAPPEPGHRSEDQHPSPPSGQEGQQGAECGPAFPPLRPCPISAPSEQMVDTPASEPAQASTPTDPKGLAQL
T1 sequence (P56373 1-397): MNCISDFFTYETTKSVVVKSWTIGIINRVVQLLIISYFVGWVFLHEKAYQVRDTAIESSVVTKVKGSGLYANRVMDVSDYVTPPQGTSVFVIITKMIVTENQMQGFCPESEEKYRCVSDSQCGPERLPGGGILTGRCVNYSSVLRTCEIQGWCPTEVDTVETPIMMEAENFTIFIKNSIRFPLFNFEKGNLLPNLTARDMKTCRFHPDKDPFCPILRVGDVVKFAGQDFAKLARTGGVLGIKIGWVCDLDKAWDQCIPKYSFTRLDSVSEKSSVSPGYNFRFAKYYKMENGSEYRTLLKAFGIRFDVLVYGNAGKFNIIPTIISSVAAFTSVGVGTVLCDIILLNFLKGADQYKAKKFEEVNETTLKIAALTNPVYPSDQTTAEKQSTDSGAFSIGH
Outline: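 Stable human P2X2/3 TRex293 cells (doxycycline-induced) loaded with Calcium 4 dye; compounds, 11-point half-log series from 2 mM top stock, preincubated 15 min at RT in HBSS/HEPES pH 7.4 with 1.8 mM CaCl2. Agonist added at EC75; fluorescence change versus no-compound wells gave IC50.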

P2X3 = molecular target: T2, P2X3 (UniProt P56373); assay: P2X3 FLIPR intracellular calcium assay; format: cell-based; details: agonist at EC75, species (human or rat) not given
T2 sequence (P56373 1-397): T1 sequence (P56373 1-397)
Outline: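 Human P2X3-HEK, human P2X2/3-TRex293, rat P2X2/3-TRex293 or rat P2X3 TRex-CHO cells loaded with Calcium 4 dye (1.8 mM probenecid, pH 7.4).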

Structure (SMILES)	IC50 (P2X2/3) [nM]	IC50 (P2X3) [nM]
Cc1cnc(-c2cnc3c(-n4nncc4C(C)(C)C)cc(C(=O)N[C@@H](C)c4nnc[nH]4)cn23)s1 [Example 57]	100 to 1000	1 to 100
CCc1cnnn1-c1cc(C(=O)N[C@@H](CC)c2nnc[nH]2)cn2c(-c3ccc(C)s3)cnc12 [Example 58]	1 to 100	1 to 100
Cc1ccc(-c2cnc3c(-n4nnnc4C4CCC4)cc(C(=O)NC(C)c4cnccn4)cn23)s1 (stereo not drawn) [Example 160]	100 to 1000	> 10000
Cc1ccc(-c2cnc3c(-c4c(C)n[nH]c4C)cc(C(=O)N[C@@H](C)c4nnc[nH]4)cn23)s1 [Example 110]	1 to 100	1 to 100
Cc1ccc(-c2cnc3c(N4CCC(C)(C)CC4)cc(C(=O)N[C@@H](C)c4nnc[nH]4)cn23)s1 [Example 129]	100 to 1000	1 to 100
COC1CCCN(c2cc(C(=O)N[C@@H](C)c3nnc[nH]3)cn3c(-c4ccc(C)s4)cnc23)C1 (stereo partly drawn) [Example 141]	100 to 1000	1 to 100
CCc1nnnn1-c1cc(C(=O)N[C@@H](C)c2nnc[nH]2)cn2c(-c3ccc(C)s3)cnc12 [Example 178]	100 to 1000	1 to 100
Cc1ccc(-c2cnc3c(N4CCC(C)(C(N)=O)CC4)cc(C(=O)N[C@@H](C)c4nnc[nH]4)cn23)s1 [Example 12, (S)—N-(1-(4H-1,2,4-Triazol-3-yl)ethyl)-8-(4-carbamoyl-4-methylpiperidin-1-yl)-3-(5-methylthiophen-2-yl)imidazo[1,2-a]pyridine-6-carboxamide]	1 to 100	1 to 100
Cc1ccc(-c2cnc3c(N4CCC(F)CC4)cc(C(=O)N[C@@H](C)c4nnc[nH]4)cn23)s1 [Example 137]	100 to 1000	1 to 100
Cc1ccc(-c2cnc3c(N(C)C(=O)C(C)C)cc(C(=O)N[C@@H](C)c4nnc[nH]4)cn23)s1 [Example 20, (S)—N-(1-(4H-1,2,4-Triazol-3-yl)ethyl)-8-(N-methylisobutyramido)-3-(5-methylthiophen-2-yl)imidazo[1,2-a]pyridine-6-carboxamide]	100 to 1000	1 to 100
C[C@H](NC(=O)c1cc(-n2nnnc2C2CC2)c2ncc(-c3ccc(Cl)s3)n2c1)c1nnc[nH]1 [Example 175]	1000 to 10000	100 to 1000
CCn1nccc1-c1cc(C(=O)N[C@@H](C)c2nnc[nH]2)cn2c(-c3ccc(C)s3)cnc12 [Example 103]	100 to 1000	1 to 100
CCc1nnc(-c2cc(C(=O)N[C@@H](C)c3nnc[nH]3)cn3c(-c4ccc(C)s4)cnc23)o1 [Example 1, (S)—N-(1-(4H-1,2,4-Triazol-3-yl)ethyl)-8-(5-ethyl-1,3,4-oxadiazol-2-yl)-3-(5-methylthiophen-2-yl)imidazo[1,2-a]pyridine-6-carboxamide]	1000 to 10000	100 to 1000
Cc1ccc(-c2cnc3c(N4CCC(C(F)(F)F)CC4)cc(C(=O)N[C@@H](C)c4nnc[nH]4)cn23)s1 [Example 134]	1000 to 10000	1 to 100
Cc1ccc(-c2cnc3c(Nc4nccs4)cc(C(=O)NCc4ccn(C)c(=O)c4)cn23)s1 [Example 93]	1000 to 10000	100 to 1000
Cc1ccc(-c2cnc3c(-n4nnnc4C(F)F)cc(C(=O)N[C@@H](C)c4nnc[nH]4)cn23)s1 [Example 168]	1 to 100	1 to 100
Cc1ccc(-c2cnc3c(-n4nnnc4C(C)(F)F)cc(C(=O)N[C@@H](C)c4nnc[nH]4)cn23)s1 [Example 182]	1 to 100	1 to 100
Cc1noc(C)c1-c1cc(C(=O)N[C@@H](C)c2nnc[nH]2)cn2c(-c3ccc(Cl)s3)cnc12 [Example 107]	1 to 100	1 to 100
CC[C@H](NC(=O)c1cc(-n2nnnc2C(F)F)c2ncc(-c3ccc(C)s3)n2c1)c1nnc[nH]1 [Example 171]	1 to 100	1 to 100
CC1CCN(c2cc(C(=O)N[C@@H](C)c3nnc[nH]3)cn3c(-c4ccc(Cl)s4)cnc23)CC1 [Example 118]	100 to 1000	100 to 1000
Cc1cccc(-c2cnc3c(N4CCC(C)CC4)cc(C(=O)N[C@@H](C)c4ncn[nH]4)cn23)c1 [Example 149]	1000 to 10000	100 to 1000
Cc1ccc(-c2cnc3c(-n4nncc4C)cc(C(=O)N[C@H](c4nnc[nH]4)C(C)C)cn23)s1 [Example 74]	1000 to 10000	100 to 1000
Cc1ccc(-c2cnc3c(-n4nncc4C4CC4)cc(C(=O)N[C@@H](C)c4nnc[nH]4)cn23)s1 [Example 34]	1 to 100	1 to 100
CCCc1nnnn1-c1cc(C(=O)N[C@@H](C)c2nnc[nH]2)cn2c(-c3ccc(C)s3)cnc12 [Example 179]	1 to 100	1 to 100
CCC(=O)N(C)c1cc(C(=O)N[C@@H](C)c2nnc[nH]2)cn2c(-c3ccc(C)s3)cnc12 [Example 187]	100 to 1000	1 to 100

Other lines, results leading:

IC50 (P2X2/3) [nM]	IC50 (P2X3) [nM]	Structure (SMILES)
1 to 100	1 to 100	Cc1nnc([C@@H](C)NC(=O)c2cc(-n3nnnc3C(F)F)c3ncc(-c4ccc(C)s4)n3c2)o1 [Example 180]
100 to 1000	1 to 100	CCc1cnnn1-c1cc(C(=O)NCc2cnc(C)nc2)cn2c(-c3ncc(C)s3)cnc12 [Example 75]
100 to 1000	100 to 1000	Cc1ncc(CNC(=O)c2cc(-n3nnnc3C(F)F)c3ncc(-c4ccc(C)o4)n3c2)cn1 [Example 183]
100 to 1000	100 to 1000	Cc1ccc(CNC(=O)c2cc(-n3nnnc3CO)c3ncc(-c4ccc(C)s4)n3c2)cn1 [Example 17, 8-(5-(Hydroxymethyl)-1H-tetrazol-1-yl)-N-((6-methylpyridin-3-yl)methyl)-3-(5-methylthiophen-2-yl)imidazo[1,2-a]pyridine-6-carboxamide]
1 to 100	1 to 100	Cc1cnc(CNC(=O)c2cc(-n3nncc3C(F)F)c3ncc(-c4ccc(C)s4)n3c2)cn1 [Example 32]
100 to 1000	1000 to 10000	Cc1ccc(CNC(=O)c2cc(N3CCC(C)CC3)c3ncc(-c4ccc(C)s4)n3c2)cn1 [Example 115]
100 to 1000	1000 to 10000	Cc1cnc(CNC(=O)c2cc(N3CCC(C)CC3)c3ncc(-c4ccc(C)s4)n3c2)cn1 [Example 116]
1 to 100	1 to 100	Cc1ncc(CNC(=O)c2cc(-n3nncc3C(F)F)c3ncc(-c4ncc(C)s4)n3c2)cn1 [Example 47]
100 to 1000	1 to 100	Cc1ncc(CNC(=O)c2cc(-n3nncc3CC(F)(F)F)c3ncc(-c4ncc(C)s4)n3c2)cn1 [Example 82]
1 to 100	> 10000	Cc1cnc(CNC(=O)c2cc(-n3nnnc3C3CCC3)c3ncc(-c4ccc(C)s4)n3c2)cn1 [Example 164]
100 to 1000	1000 to 10000	Cc1ccc(CNC(=O)c2cc(-c3cnn(C)c3)c3ncc(-c4ccc(C)s4)n3c2)cn1 [Example 98]
1 to 100	1 to 100	Cc1ccc(CNC(=O)c2cc(-n3nncc3C(F)F)c3ncc(-c4ccc(C)o4)n3c2)cn1 [Example 48]
1 to 100	> 10000	Cc1ccc(CNC(=O)c2cc(-n3nncc3C(C)C)c3ncc(-c4ccc(C)s4)n3c2)cn1 [Example 45]
1 to 100	1 to 100	Cc1ccc(CNC(=O)c2cc(-n3nncc3C)c3ncc(-c4ccc(C)s4)n3c2)cn1 [Example 28]
100 to 1000	> 10000	Cc1ccc(CNC(=O)c2cc(-n3c(C)cnc3C)c3ncc(-c4ccc(C)s4)n3c2)cn1 [Example 2, 8-(2,5-Dimethyl-1H-imidazol-1-yl)-N-((6-methylpyridin-3-yl)methyl)-3-(5-methylthiophen-2-yl)imidazo[1,2-a]pyridine-6-carboxamide]
1 to 100	1 to 100	COc1ncc(CNC(=O)c2cc(-n3nnnc3C(F)F)c3ncc(-c4ccc(C)s4)n3c2)cn1 [Example 169]
1 to 100	> 10000	CCc1nnnn1-c1cc(C(=O)NCc2ccc(C)nc2)cn2c(-c3ccc(C)s3)cnc12 [Example 153]
1000 to 10000	1 to 100	Cc1ccc(-c2cnc3c(-c4cnn(C)c4)cc(C(=O)NCc4ccn(C)c(=O)c4)cn23)s1 [Example 99]
1 to 100	1 to 100	Cc1noc([C@@H](C)NC(=O)c2cc(-n3nncc3C(F)F)c3ncc(-c4ccc(C)s4)n3c2)n1 [Example 85]
1 to 100	1 to 100	Cc1ncc(CNC(=O)c2cc(-n3nnnc3C(F)F)c3ncc(-c4ccc(C)s4)n3c2)cn1 [Example 177]
